Assay results as given in ChEMBL document CHEMBL1152373, “Synthesis and antimultidrug resistance evaluation of icariin and its derivatives” (Bioorg Med Chem Lett, 2009).
Active and inactive are the calls of the source. The calls are words filed in the database; no cut-off is given here.

Key:
NCI/ADR-RES [1] = assay: Reversal of P-gp-mediated multidrug resistance in human MCF7/ADR cells assessed as modulation factor, ratio of adriamycin IC50 without drug to adriamycin IC50 with drug at 1 uM after 72 hrs by MTT assay; assay type: cell-based
NCI/ADR-RES [2] = assay: Reversal of P-gp-mediated multidrug resistance in human MCF7/ADR cells assessed as enhancement in cytotoxicity of adriamycin; assay type: cell-based
[3] = Cytotoxicity against human MCF7/ADR cells after 72 hrs by MTT assay; assay type: functional, cell-based; settings: NCI/ADR-RES
P-gp (ABCB1) [4] = target: T1, P-gp (ABCB1) (Homo sapiens, UniProt P08183); assay: Inhibition of P-gp in human Caco-2 cells assessed as decrease in efflux permeability from basolateral to apical side at 50 uM after 120 mins; assay type: cell-based
T1 sequence (P08183 whole entry): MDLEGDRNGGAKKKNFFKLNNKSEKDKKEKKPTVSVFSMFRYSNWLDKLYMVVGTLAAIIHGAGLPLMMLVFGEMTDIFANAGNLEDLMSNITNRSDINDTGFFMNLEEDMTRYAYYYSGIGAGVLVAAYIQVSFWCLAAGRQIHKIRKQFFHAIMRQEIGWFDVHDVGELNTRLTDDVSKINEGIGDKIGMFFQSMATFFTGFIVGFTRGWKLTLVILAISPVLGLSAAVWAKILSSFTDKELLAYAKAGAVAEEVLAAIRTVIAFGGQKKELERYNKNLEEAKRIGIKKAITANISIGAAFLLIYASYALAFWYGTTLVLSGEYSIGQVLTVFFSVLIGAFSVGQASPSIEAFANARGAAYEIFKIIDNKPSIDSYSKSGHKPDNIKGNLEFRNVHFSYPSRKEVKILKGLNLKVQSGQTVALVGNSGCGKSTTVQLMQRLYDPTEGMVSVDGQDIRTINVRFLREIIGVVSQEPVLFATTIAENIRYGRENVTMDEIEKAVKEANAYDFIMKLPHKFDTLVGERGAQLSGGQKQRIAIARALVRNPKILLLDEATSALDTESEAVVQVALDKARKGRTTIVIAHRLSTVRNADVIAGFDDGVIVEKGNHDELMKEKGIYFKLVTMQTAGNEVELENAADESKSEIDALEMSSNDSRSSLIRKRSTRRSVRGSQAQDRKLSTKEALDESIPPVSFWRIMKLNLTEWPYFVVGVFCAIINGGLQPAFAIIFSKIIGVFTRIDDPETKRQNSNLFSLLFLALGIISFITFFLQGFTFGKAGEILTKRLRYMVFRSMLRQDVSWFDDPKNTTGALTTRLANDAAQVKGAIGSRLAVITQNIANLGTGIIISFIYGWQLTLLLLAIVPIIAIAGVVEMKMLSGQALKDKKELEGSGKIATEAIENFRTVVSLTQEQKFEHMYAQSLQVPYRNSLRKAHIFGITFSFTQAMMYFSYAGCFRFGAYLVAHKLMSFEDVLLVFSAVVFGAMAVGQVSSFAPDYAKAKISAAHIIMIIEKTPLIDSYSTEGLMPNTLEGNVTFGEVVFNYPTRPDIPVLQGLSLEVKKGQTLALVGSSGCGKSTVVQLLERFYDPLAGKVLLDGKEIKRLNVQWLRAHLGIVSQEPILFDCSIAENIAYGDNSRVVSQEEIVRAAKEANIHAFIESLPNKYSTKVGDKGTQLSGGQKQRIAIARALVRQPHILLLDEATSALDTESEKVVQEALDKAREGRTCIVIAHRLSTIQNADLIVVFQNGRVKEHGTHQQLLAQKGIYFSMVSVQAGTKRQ

MCF7 [5] = assay: Reversal of P-gp-mediated multidrug resistance in human MCF7 cells assessed as assessed as increase in intracellular adriamycin accumulation at 5 uM incubated 2 hrs before adriamycin challenge by spectrophotometry; assay type: cell-based
NCI/ADR-RES [6] = assay: Reversal of P-gp-mediated multidrug resistance in human MCF7/ADR cells assessed as modulation factor, ratio of adriamycin IC50 without drug to adriamycin IC50 with drug at 25 uM after 72 hrs by MTT assay; assay type: cell-based
NCI/ADR-RES [7] = assay: Reversal of P-gp-mediated multidrug resistance in human MCF7/ADR cells assessed as modulation factor, ratio of adriamycin IC50 without drug to adriamycin IC50 with drug at 10 uM after 72 hrs by MTT assay; assay type: cell-based
NCI/ADR-RES [8] = assay: Reversal of P-gp-mediated multidrug resistance in human MCF7/ADR cells assessed as assessed as increase in intracellular adriamycin accumulation at 5 uM incubated 2 hrs before adriamycin challenge by spectrophotometry; assay type: cell-based
NCI/ADR-RES [9] = assay: Inhibition of MDR1 gene expression in human MCF7/ADR cells after 48 hrs by RT-PCR analysis; assay type: functional, cell-based
P-gp (ABCB1) [10] = target: T1, P-gp (ABCB1); assay: Inhibition of P-gp in human Caco-2 cells assessed as increase in influx permeability from apical to basolateral side at 50 uM after 120 mins; assay type: cell-based
MCF7 [11] = assay: Ratio of IC50 for human MCF7/ADR cells to IC50 for human MCF7 cells; assay type: functional

Compound | Ratio IC50 (NCI/ADR-RES [1]) | fold change (FC) (NCI/ADR-RES [2]) | IC50 [3] | inhibition at 2 h, 50 µM (P-gp (ABCB1) [4]) | Activity (MCF7 [5]) | Ratio IC50 (NCI/ADR-RES [6]) | Ratio IC50 (NCI/ADR-RES [7]) | Activity (NCI/ADR-RES [8]) | Activity (NCI/ADR-RES [9]) | inhibition at 2 h, 50 µM (P-gp (ABCB1) [10]) | Activity (NCI/ADR-RES [2]) | Ratio IC50 (MCF7 [11])
COc1ccc(-c2oc3c(CC=C(C)C)c(O)cc(O)c3c(=O)c2O)cc1 [ICARITIN] | 2.48 | 10 | 52.1 µM | 41.9% | inactive | 12.9 | 4.96 | Active | Active | 41.9% | – | –
COc1ccc(-c2oc3c(CC=C(C)C)c(O)cc(O)c3c(=O)c2O[C@@H]2O[C@@H](C)[C@H](O)[C@@H](O)[C@H]2O)cc1 | 1.28 | – | > 100 µM | – | inactive | 1.61 | 1.39 | Active | – | – | – | –
COc1ccc(-c2oc3c(CC=C(C)C)c(O[C@@H]4O[C@H](CO)[C@@H](O)[C@H](O)[C@H]4O)cc(O)c3c(=O)c2O[C@@H]2O[C@@H](C)[C@H](O)[C@@H](O)[C@H]2O)cc1 [ICARIIN] | 1.41 | – | > 100 µM | – | inactive | 2.03 | 1.59 | Active | – | – | Dose-dependent effect | –
COc1ccc(-c2oc3c(CC=C(C)C)c(O[C@@H]4O[C@H](CO)[C@@H](O)[C@H](O)[C@H]4O)cc(O)c3c(=O)c2O)cc1 | 1.41 | – | 60.8 µM | – | inactive | 1.62 | 1.49 | Active | – | – | – | –
COc1cccc2c1C(=O)c1c(O)c3c(c(O)c1C2=O)C[C@@](O)(C(=O)CO)C[C@@H]3O[C@H]1C[C@H](N)[C@H](O)[C@H](C)O1 [DOXORUBICIN] | – | – | 25.3 µM | – | – | – | – | – | – | – | – | 47.7
COc1ccc(-c2oc3c4c(cc(O)c3c(=O)c2OS(C)(=O)=O)OC(C)(C)CC4)cc1 | 1.89 | – | 55 µM | – | inactive | 2.71 | 2.34 | Active | Active | – | – | –
COc1ccc(-c2oc3c4c(cc(O)c3c(=O)c2O)OC(C)(C)CC4)cc1S(=O)(=O)O | 1.33 | – | > 100 µM | – | inactive | 2.56 | 2.15 | Active | Active | – | – | –
COc1ccc(-c2oc3c4c(cc(O)c3c(=O)c2O)OC(C)(C)CC4)cc1 | 2.33 | 10 | > 100 µM | 39.6% | inactive | 10.1 | 4.35 | Active | Active | 39.6% | – | –
COc1ccc(-c2oc3c4c(cc(O)c3c(=O)c2OS(N)(=O)=O)OC(C)(C)CC4)cc1 | 1.42 | – | 92.1 µM | – | inactive | 3.65 | 1.69 | Active | Active | – | – | –
COc1ccc(-c2oc3c(CCC(C)(C)OC)c(O)cc(O)c3c(=O)c2O)cc1 | 1.26 | – | 20.9 µM | – | inactive | – | 2.41 | Active | – | – | Dose-dependent effect | –
COc1ccc(-c2oc3c(CC=C(C)C)c(OS(C)(=O)=O)cc(O)c3c(=O)c2OS(C)(=O)=O)cc1 | 1.11 | – | 80.8 µM | – | inactive | 1.46 | 1.36 | Active | – | – | – | –
